According to article PMC5982655, “Interaction of the New Monofunctional Anticancer Agent Phenanthriplatin With Transporters for Organic Cations” (Frontiers in Chemistry, 2018):

Tests used:
[1] = system: HEK 293 hOCT2 cells; assay: MTT cell viability, HEK 293 hOCT2 cells; assay type: cell-based, human; conditions: HEK 293 hOCT2, cimetidine alone (10 or 100 μM), 10 min
Procedure: (§1) A modified 3-(4,5-dimethylthiazol-2-yl)-2,5-diphenyltetrazolium bromide (MTT) assay (Mosmann, [1983]) was used to test the chemosensitivity of cells to phenanthriplatin and, in some experiments, to cisplatin by determining the glycolysis rate via the reduction of the yellow tetrazolium salt MTT to a purple formazan dye, as previously described (Wehe et al., [2014]). Briefly, after growing for 24 h in the incubator, cells expressing or not hOCT2, hMATE1, hMATE2 or Ctr1 were treated for 10 min with platinum derivatives. Control cells were incubated with drug-free complete cell culture medium. Afterwards, the medium was carefully removed and replaced by 200 μL of fresh complete cell culture medium. After incubation for another 24 h, 10 μL of MTT solution containing 5 mg/mL of the dye were added to each well, and the cells were again incubated for 3 h. The medium was then removed and 100 μL of lysis buffer containing 10% (w/v) sodium dodecyl sulfate and 40% (v/v) dimethylformamide was added to each well. The plates were shaken for 10 min to destroy the cell structure and dissolve the blue formazan dye (Furchert et al., [2007]; Wehe et al., [2014]). Finally, the absorbance was measured at 590 nm using an automated microtiter plate reader (Infinite M200; Tecan, Männedorf, Switzerland). The percentage of viable cells in the untreated controls was compared to that for the various treatments. Experiments carried out with DAOY and UW228 cells followed a similar protocol except that these cells were incubated for 24 h with phenanthriplatin.

[2] = target: T1, hOCT2 (Homo sapiens, UniProt O15244); assay: Inhibition of ASP+ uptake in HEK 293 cells expressing hOCT2; assay type: cell-based; conditions: HEK 293 hOCT2, 1 μM ASP+
T1 construct: expressed in transfected cells; gift of H. Koepsell
T1 sequence (O15244 1-555): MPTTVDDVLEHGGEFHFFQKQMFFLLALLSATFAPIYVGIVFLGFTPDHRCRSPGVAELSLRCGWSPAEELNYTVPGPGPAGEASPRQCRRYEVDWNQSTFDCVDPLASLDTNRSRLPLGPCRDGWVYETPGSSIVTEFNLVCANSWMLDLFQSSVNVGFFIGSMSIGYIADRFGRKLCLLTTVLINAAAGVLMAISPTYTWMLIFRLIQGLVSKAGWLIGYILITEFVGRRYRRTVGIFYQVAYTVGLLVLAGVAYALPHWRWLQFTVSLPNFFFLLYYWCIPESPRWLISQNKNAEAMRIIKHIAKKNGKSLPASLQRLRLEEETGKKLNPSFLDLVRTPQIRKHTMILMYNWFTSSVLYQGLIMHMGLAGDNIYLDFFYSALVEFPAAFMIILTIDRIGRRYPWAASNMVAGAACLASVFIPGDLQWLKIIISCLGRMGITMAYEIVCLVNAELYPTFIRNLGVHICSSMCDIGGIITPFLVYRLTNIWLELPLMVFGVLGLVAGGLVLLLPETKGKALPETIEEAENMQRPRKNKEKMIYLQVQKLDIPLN
Procedure: (§2) The interaction of phenanthriplatin with transporters for organic cations (OCT1-3, MATE1, and MATE2K) was investigated by measuring its effects on the uptake of the fluorescent organic cation 4-(4-dimethylamino)styryl-N-methylpyridinium (ASP^+). Microfluorometric measurements of ASP^+ uptake were performed with a fluorescence plate reader (Infinity 200, Tecan, Crailsheim, Germany; excitation at 465 nm, emission at 590 nm) as described previously for cultured HEK 293 cells (Wilde et al., [2009]). Before measurements, the culture medium in the wells of the 96 well microtiter plate containing HEK 293 cells was replaced by a HCO3- -free Ringer-like solution containing (in mM) NaCl 145, K2HPO4 1.6, KH2PO4 0.4, D-glucose 5, MgCl2 1, calcium gluconate 1.3, and pH adjusted to 7.4. Fluorescence was measured dynamically at 37°C in each well before and after ASP^+ addition to HCO3- -free Ringer-like solution, alone or together with increasing phenanthriplatin concentrations, and plotted versus time. ASP^+ (final concentration 1 or 10 μM for experiments with OCTs or MATEs, respectively) was added after the third sampling interval. Emission from the complete area of the well bottom was analyzed four times and averaged for each well. […] Background fluorescence was measured for each plate in wells with identical solutions containing no cells and subtracted from each well containing cells. Experiments were performed with cells from one passage of the same day with controls and test replicates in the same plate.
(§3) Data are presented as mean values ± SEM, with (n) referring to the number of wells. IC50 values defined as the concentration of platinum agent required to inhibit uptake of ASP^+ by 50% and EC50 values used to assess cell viability were obtained by sigmoidal concentration-response curve fitting using GraphPad Prism, Version 5.3 (GraphPad Software, San Diego, USA). […] For multiple comparisons, ANOVA with Bonferroni post-test was used. A P-value < 0.05 was considered statistically significant.

[3] = target: T2, hOCT1 (Homo sapiens, UniProt O15245); assay: Inhibition of ASP+ uptake in HEK 293 cells expressing hOCT1; assay type: cell-based; conditions: HEK 293 hOCT1, 1 μM ASP+
T2 construct: expressed in transfected cells; gift of H. Koepsell
T2 sequence (O15245 1-554): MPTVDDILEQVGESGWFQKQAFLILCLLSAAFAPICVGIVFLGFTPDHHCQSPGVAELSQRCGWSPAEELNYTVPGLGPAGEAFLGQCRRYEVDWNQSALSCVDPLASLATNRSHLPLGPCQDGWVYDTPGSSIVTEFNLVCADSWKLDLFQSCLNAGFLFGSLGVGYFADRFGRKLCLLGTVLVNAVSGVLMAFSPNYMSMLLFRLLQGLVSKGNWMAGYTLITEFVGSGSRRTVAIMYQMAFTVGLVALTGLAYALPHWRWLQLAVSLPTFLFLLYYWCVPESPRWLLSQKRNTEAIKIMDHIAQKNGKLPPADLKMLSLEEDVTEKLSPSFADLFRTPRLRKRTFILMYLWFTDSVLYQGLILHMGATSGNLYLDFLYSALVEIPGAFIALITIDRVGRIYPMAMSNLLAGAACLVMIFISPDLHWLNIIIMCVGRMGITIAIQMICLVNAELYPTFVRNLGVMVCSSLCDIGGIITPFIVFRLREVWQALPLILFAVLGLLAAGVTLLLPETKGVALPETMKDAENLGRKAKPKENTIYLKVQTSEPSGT
Procedure: as §2, §3

[4] = target: T3, hMATE1 (Homo sapiens, UniProt Q96FL8); assay: Inhibition of ASP+ uptake in HEK 293 cells expressing hMATE1; assay type: cell-based; conditions: inhibition of ASP+ uptake, HEK293 hMATE1, Supplementary Figure 1
T3 construct: expressed in transfected cells
T3 sequence (Q96FL8 1-570): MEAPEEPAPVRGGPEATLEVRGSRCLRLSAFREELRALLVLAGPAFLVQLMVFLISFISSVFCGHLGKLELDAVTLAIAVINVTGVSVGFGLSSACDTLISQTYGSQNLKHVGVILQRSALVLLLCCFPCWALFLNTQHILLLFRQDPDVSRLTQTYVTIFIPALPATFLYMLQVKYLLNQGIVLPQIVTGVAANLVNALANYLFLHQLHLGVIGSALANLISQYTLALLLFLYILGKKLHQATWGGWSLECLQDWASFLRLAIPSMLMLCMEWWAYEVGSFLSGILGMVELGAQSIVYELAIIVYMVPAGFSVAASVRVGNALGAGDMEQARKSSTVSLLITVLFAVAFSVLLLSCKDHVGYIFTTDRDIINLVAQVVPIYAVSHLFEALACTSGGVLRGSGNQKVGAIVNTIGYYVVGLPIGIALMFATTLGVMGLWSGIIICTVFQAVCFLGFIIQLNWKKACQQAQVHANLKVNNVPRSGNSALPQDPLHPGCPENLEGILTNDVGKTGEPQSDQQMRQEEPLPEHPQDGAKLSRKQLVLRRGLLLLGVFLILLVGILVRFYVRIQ
Procedure: as §2, §3

[5] = system: Ctr1^+/+ MEFs; assay: MTT cell viability, Ctr1+/+ MEFs; assay type: cell-based, mouse; conditions: 1 mM, 10 min
Procedure: as §1

[6] = system: Ctr1^−/− MEFs; assay: MTT cell viability, Ctr1-/- MEFs; assay type: cell-based, mouse; conditions: 1 mM, 10 min
Procedure: as §1

[7] = target: T4, hMATE2K (Homo sapiens, UniProt Q86VL8); parameters: method as in Astorga et al., [2012]; conditions: ref Astorga et al., [2012]; cited from earlier work
T4 construct: expressed in transfected cells

[8] = target: T3, hMATE1; parameters: method as in Astorga et al., [2012]; conditions: ref Astorga et al., [2012]; cited from earlier work

T4 sequence (Q86VL8 1-566 isoform Q86VL8-3): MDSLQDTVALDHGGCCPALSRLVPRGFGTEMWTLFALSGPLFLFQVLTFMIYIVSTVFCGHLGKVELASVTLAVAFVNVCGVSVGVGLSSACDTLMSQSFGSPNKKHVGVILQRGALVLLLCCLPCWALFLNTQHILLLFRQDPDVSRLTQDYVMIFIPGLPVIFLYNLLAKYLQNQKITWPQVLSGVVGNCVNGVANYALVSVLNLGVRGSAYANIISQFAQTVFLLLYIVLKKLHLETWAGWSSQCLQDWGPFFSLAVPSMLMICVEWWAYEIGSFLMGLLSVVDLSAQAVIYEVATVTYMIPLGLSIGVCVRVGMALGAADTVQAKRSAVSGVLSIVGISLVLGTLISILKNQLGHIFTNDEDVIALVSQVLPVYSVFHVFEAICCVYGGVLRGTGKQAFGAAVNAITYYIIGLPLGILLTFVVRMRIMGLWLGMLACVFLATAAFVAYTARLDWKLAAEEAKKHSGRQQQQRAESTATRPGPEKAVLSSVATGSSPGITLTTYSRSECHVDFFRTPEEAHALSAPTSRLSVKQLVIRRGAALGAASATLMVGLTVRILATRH

## CN/C(=N/CCSCc1nc[nH]c1C)NC#N [Cimetidine, cimetidine, reference compound]
[1]
  Cell viability (MTT): no significant effect on cell viability

## N.N.[Cl][Pt][Cl] [cisplatin, reference compound]
[2]
  IC50: 50 µM
[3]
  IC50: 61 µM
[4]
  Interaction (affinity) with hMATE1: very low affinity
[5]
  Cell viability (MTT): toxic to Ctr1^+/+
[6]
  Cell viability (MTT): no decrease in cell viability

## C[n+]1ccc(-c2ccccc2)cc1 [MPP^+, 1-methyl-4-phenylpyridinium]
[7]
  Affinity for hMATE2K: 3.3 µM
[8]
  Affinity for hMATE1: 4.7 µM
